{
  "source": "patent US20130331345A1",
  "about": "“PUERARIN HYDRATES, PREPARATION METHODS AND USES THEREOF” (priority 2010, published 2013)",
  "key": {"[1]": {"test_system": "cerebral ischemia-reperfusion", "experiment": "Effects on cerebral ischemia-reperfusion in rats (NO, NOS, MDA, SOD in brain tissue)", "format": "in vivo, Wistar male rats", "conditions": "rats after ischemia-reperfusion, 400 mg/kg intragastric twice per day, monohydrate", "protocol": "36 Wistar male rats, body weight 250-300 g, were randomly divided into 3 groups: sham operation group, ischemia-reperfusion group, and the present invention drug group, 12 rats per group. The rats of the present invention drug group were intragastrically administered with physiological saline suspension of puerarin monohydrate (prepared by method of Example 1) in a dose of 400 mg/kg, volume of 2 ml, twice per day, for consecutive 7 days, and cerebral ischemia operation was performed 60 min after the last administration; the rats of sham operation group and the ischemia-reperfusion group were administered separately with isometric physiological saline 2 ml.\nThe rats were anesthetized with 10% chloral hydrate (3.5 ml/kg) by intraperitoneal injection, fixed at supine position, and molded by a modified Zea Longa suture method referring to document (Journal of Shanghai Jiaotong University (medical Science), 2007, 27(10): 1218-1222); suture was inserted only 10 mm in sham operation group, and the other steps were the same as the model groups. […] After successful modeling, the rats of the present invention drug group were administered twice per day in the same dose as above, while those of the sham operation group and the ischemia-reperfusion group were administered isometric physiological saline 2 ml. Sutures were drawn out 2 hours after modeling, the rats were executed 24 hours after reperfusion, and their brain weights were measured rapidly. 10% brain tissue homogenates were prepared at low temperature with physiological saline, centrifuged under 3000 r/min for 10 min at low temperature, the deposit was discarded, and the supernatant was taken and measured with commercial kits of SOD, MDA, NO, NOS according to their specifications to determine contents or activities of SOD, MDA, NO, NOS."}, "[2]": {"experiment": "Long-term stability test", "format": "physicochemical"}, "[3]": {"target": "T1, ACE (Rattus norvegicus, UniProt P47820)", "T1 construct": "from tissue; host or cells: blood serum of Wistar rats", "T1 sequence (P47820 36-1313)": "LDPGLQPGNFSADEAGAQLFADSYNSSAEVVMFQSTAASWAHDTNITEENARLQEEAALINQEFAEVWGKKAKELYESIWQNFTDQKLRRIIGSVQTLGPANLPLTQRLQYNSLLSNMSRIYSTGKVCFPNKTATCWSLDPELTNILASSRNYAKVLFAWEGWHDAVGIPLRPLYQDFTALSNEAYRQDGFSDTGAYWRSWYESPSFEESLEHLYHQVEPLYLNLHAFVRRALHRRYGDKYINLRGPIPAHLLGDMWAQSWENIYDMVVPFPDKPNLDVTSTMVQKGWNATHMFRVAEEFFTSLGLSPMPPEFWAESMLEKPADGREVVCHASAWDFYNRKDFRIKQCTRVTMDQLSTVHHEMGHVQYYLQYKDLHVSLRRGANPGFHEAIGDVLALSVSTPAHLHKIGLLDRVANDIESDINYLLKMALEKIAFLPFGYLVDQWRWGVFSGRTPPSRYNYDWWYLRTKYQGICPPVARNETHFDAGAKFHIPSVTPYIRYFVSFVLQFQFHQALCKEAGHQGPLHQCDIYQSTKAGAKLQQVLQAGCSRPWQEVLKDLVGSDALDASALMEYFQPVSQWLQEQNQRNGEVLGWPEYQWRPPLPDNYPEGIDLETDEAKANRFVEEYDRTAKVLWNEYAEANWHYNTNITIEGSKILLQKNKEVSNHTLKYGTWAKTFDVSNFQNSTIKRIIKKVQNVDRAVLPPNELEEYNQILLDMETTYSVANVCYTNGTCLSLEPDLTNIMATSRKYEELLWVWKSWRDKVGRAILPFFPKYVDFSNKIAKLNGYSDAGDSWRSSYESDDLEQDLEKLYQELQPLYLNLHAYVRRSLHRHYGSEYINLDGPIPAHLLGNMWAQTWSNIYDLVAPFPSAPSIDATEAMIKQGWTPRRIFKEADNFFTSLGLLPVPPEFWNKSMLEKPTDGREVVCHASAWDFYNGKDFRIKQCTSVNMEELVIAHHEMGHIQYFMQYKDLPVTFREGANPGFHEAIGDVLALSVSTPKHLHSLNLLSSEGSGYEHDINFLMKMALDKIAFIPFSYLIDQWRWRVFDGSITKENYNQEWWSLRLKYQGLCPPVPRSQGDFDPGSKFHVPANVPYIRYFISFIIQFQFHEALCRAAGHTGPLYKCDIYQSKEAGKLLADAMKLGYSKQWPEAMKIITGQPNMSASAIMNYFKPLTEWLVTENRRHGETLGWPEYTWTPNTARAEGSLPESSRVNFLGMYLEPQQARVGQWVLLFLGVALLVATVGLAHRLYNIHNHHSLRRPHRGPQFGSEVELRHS", "experiment": "Effects on inhibiting ACE activity (rat blood serum after intraperitoneal injection)", "format": "in vivo, Wistar rats", "protocol": "24 Wistar rats, 280-300 g, were randomly divided into 3 groups, 8 rats per group, one group was control group, other two groups were separately 100 mg/kg, 200 mg/kg dose groups (which was added with cosolvent to form an injectable solution), subjected to intraperitoneal injection, the control group was administered with physiological saline. 60 min after administration, the rats were anesthetized with 1% pentobarbital sodium, subjected to thoracotomy and blood sample was taken from heart, the blood sample stood at room temperature for 30 min, centrifuged under 3500 r/min at low temperature for 10 min, the supernatant was taken and stored at about −65° C., for test. Measurement of ACE activity: referring to document [WANG, Fumin, et al, Chinese Journal of Laboratory Medicine, 1983, 6(3):145-151], the results were subjected to statistical treatment: the results were expressed in x±S, and data were subjected to analysis of variance and t-test."}, "[4]": {"conditions": "listed as The present invention drug"}, "[5]": {"conditions": "listed as the present invention drug"}},
  "data": [
    {"smiles": "O=c1c(-c2ccc(O)cc2)coc2c([C@@H]3O[C@H](CO)[C@@H](O)[C@H](O)[C@H]3O)c(O)ccc12", "note": "[Sample 1, puerarin monohydrate]", "values": [
      {"measurement": "MDA in brain tissue", "setting": "[1]; [4]", "result": "2.54 ± 0.57", "unit": "nmol/mL"},
      {"measurement": "NO in brain tissue", "setting": "[1]; [4]", "result": "26 ± 6.13", "unit": "µmol/L"},
      {"measurement": "NOS in brain tissue", "setting": "[1]; [4]", "result": "23 ± 5.22", "unit": "U/ml"},
      {"measurement": "SOD in brain tissue", "setting": "[1]; [4]", "result": "243 ± 19.66", "unit": "U/ml"},
      {"measurement": "MDA in brain tissue", "setting": "[1]; [5]", "result": "significantly decreased"},
      {"measurement": "NO in brain tissue", "setting": "[1]; [5]", "result": "significantly decreased"},
      {"measurement": "NOS in brain tissue", "setting": "[1]; [5]", "result": "decreased"},
      {"measurement": "SOD in brain tissue", "setting": "[1]; [5]", "result": "increased significantly"},
      {"measurement": "Marked content (%)", "setting": "[2]; sampling time 0 month", "result": 99.5, "unit": "%"},
      {"measurement": "Property", "setting": "[2]; sampling time 0 month", "result": "off-white powder"},
      {"measurement": "Related substance (%)", "setting": "[2]; sampling time 0 month", "result": "<2", "unit": "%"},
      {"measurement": "Marked content (%)", "setting": "[2]; sampling time 3 month", "result": 99.6, "unit": "%"},
      {"measurement": "Property", "setting": "[2]; sampling time 3 month", "result": "off-white powder"},
      {"measurement": "Related substance (%)", "setting": "[2]; sampling time 3 month", "result": "<2", "unit": "%"},
      {"measurement": "Marked content (%)", "setting": "[2]; sampling time 6 month", "result": 99.5, "unit": "%"},
      {"measurement": "Property", "setting": "[2]; sampling time 6 month", "result": "off-white powder"},
      {"measurement": "Related substance (%)", "setting": "[2]; sampling time 6 month", "result": "<2", "unit": "%"},
      {"measurement": "Marked content (%)", "setting": "[2]; sampling time 9 month", "result": 99.4, "unit": "%"},
      {"measurement": "Property", "setting": "[2]; sampling time 9 month", "result": "off-white powder"},
      {"measurement": "Related substance (%)", "setting": "[2]; sampling time 9 month", "result": "<2", "unit": "%"},
      {"measurement": "Marked content (%)", "setting": "[2]; sampling time 12 month", "result": 99.4, "unit": "%"},
      {"measurement": "Property", "setting": "[2]; sampling time 12 month", "result": "off-white powder"},
      {"measurement": "Related substance (%)", "setting": "[2]; sampling time 12 month", "result": "<2", "unit": "%"},
      {"measurement": "rat blood serum ACE activity compared with the control group", "setting": "[3]; 100 and 200 mg/kg intraperitoneal, P<0.01", "result": "dose-dependent decrease"},
      {"measurement": "inhibition at 100 mg/kg", "setting": "[3]; rat, ip, rats, 100 mg/kg intraperitoneal, vs control group, read-out: inhibition rate (%)", "result": 36.1, "unit": "%"},
      {"measurement": "ACE (IU)", "setting": "[3]; rats, 100 mg/kg intraperitoneal, blood taken 60 min after administration", "result": "34.8 ± 6.19", "unit": "IU"}
    ]}
  ]
}
